Results taken from ChEMBL document CHEMBL4364326, “Design, synthesis and biological evaluation of 2-(4-alkoxy-3-cyano)phenyl-6-oxo-1,6-dihydropyrimidine-5-carboxylic acid derivatives as novel xanthine oxidase inhibitors” (Eur J Med Chem, 2019).
Active and inactive are the calls of the source. The rule behind the calls is not given here.

How the values were obtained:
[1] = biological target: T1, Xanthine dehydrogenase/oxidase (Bos taurus, UniProt P80457); experiment: Inhibition of bovine xanthine oxidase assessed as reduction in uric acid formation using xanthine as substrate preincubated with enzyme for 15 mins followed by substrate addition and measured every 30 secs for 2 mins by spectrophotometric method
T1 sequence (P80457 whole entry): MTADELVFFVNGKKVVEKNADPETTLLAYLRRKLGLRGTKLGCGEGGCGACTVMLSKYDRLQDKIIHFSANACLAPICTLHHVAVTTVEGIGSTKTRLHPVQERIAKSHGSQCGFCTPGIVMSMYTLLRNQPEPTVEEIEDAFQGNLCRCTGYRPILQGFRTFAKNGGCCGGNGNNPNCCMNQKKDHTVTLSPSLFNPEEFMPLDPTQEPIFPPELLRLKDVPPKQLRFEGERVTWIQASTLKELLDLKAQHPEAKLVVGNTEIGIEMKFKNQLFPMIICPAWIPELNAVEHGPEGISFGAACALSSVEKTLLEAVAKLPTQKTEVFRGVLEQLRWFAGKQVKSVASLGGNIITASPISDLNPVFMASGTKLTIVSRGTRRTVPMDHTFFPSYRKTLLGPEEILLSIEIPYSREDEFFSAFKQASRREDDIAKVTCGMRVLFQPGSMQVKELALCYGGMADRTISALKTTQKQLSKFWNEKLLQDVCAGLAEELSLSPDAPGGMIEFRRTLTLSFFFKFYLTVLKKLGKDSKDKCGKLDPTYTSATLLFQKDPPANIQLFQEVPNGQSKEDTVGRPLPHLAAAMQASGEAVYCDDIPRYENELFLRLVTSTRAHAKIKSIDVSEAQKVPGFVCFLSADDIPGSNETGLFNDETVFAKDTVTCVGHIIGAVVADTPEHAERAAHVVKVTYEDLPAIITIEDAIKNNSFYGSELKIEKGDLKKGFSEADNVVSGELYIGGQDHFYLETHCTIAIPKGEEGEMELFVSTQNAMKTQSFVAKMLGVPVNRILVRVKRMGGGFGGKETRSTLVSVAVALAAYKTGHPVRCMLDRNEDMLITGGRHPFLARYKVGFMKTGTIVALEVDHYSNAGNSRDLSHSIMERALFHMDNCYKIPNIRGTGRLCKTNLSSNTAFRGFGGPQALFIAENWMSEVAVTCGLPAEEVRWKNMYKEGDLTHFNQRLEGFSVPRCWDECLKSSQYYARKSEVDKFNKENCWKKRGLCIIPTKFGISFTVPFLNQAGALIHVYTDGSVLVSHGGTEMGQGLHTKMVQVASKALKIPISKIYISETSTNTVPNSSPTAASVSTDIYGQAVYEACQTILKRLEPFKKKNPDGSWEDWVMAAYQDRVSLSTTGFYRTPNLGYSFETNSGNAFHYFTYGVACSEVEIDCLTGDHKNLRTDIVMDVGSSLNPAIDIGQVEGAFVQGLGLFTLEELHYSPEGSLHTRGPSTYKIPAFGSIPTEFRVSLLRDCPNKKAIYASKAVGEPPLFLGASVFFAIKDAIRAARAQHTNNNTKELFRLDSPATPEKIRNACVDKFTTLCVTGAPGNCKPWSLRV

[2] = biological target: T1, Xanthine dehydrogenase/oxidase; experiment: Potency index, Ratio of allopurinol IC50 to compound IC50 for bovine xanthine oxidase using xanthine as substrate by spectrophotometry; details: cattle
[3] = test system: Rattus norvegicus; experiment: Anti-hyperuricemic activity in potassium oxonate-induced acute hyperuricemia Sprague-Dawley rat model assessed as reduction in AUC of uric acid in serum at 5 mg/kg, ig pretreated for 1 hr followed by potassium oxonate challenge and measured at 2 hrs post drug administration (reference value: 23%); format: functional; details: po
[4] = test system: Rattus norvegicus; experiment: Anti-hyperuricemic activity in potassium oxonate-induced acute hyperuricemia Sprague-Dawley rat model assessed as reduction in AUC of uric acid in serum at 10 mg/kg, ig pretreated for 1 hr followed by potassium oxonate challenge and measured at 2 hrs post drug administration (reference value: 23%); format: functional; details: po
[5] = biological target: T1, Xanthine dehydrogenase/oxidase; experiment: Mixed type inhibition of bovine xanthine oxidase assessed as increase in Km with decrease in Vmax of the enzyme using xanthine as substrate preincubated with enzyme for 15 mins followed by substrate addition and measured every 30 secs for 2 mins by Lineweaver-Burk plot analysis; details: cattle
[6] = test system: Rattus norvegicus; experiment: Anti-hyperuricemic activity in potassium oxonate-induced acute hyperuricemia Sprague-Dawley rat model assessed as reduction in uric acid level in serum at 5 mg/kg, ig pretreated for 1 hr followed by potassium oxonate challenge and measured at 2 hrs post drug administration; format: functional, organism-based
[7] = Acute oral toxicity in KM mouse assessed as change in behavior at 2000 mg/kg measured for 24 hrs; format: organism-based; details: in vivo
[8] = Acute oral toxicity in KM mouse measured for 24 hrs by OCED guideline method; details: in vivo

Structure (SMILES) | IC50 [1] [nM] | further results
Cc1ccc(COc2ccc(-c3ncc(C(=O)O)c(=O)[nH]3)cc2C#N)cc1 | 35.4 | –
N#Cc1cc(-c2ncc(C(=O)O)c(=N)[nH]2)ccc1OCc1ccc(Br)cc1 | 27.1 | –
Cc1ccc(COc2ccc(-c3ncc(C(=O)O)c(=N)[nH]3)cc2C#N)cc1 | 33.9 | –
N#Cc1cc(-c2ncc(C(=O)O)c(=O)[nH]2)ccc1OCc1ccccc1 | 38.7 | –
Cc1nc(-c2ccc(OCC(C)C)c(C#N)c2)sc1C(=O)O [FEBUXOSTAT] | – | inhibition in vivo at 5 mg/kg [3]: 50.8%
CC(C)(C)c1ccc(COc2ccc(-c3ncc(C(=O)O)c(=O)[nH]3)cc2C#N)cc1 | 197 | –
Oc1ncnc2[nH]ncc12 [ALLOPURINOL] | – | inhibition in vivo at 10 mg/kg [4]: 38.7%
N#Cc1cc(-c2ncc(C(=O)O)c(=O)[nH]2)ccc1OCc1ccc(Cl)cc1 | 49.9 | –
N#Cc1cc(-c2ncc(C(=O)O)c(=O)[nH]2)ccc1OCc1ccc(F)cc1 | 38.2 | –
CC(C)CCOc1ccc(-c2ncc(C(=O)O)c(=N)[nH]2)cc1C#N | – | inhibition (INH) [5]: Active; inhibition [6]: Active; Activity [7]: Non-Toxic; LD50 at 24 h [8]: > 2000 mg/kg; inhibition in vivo at 5 mg/kg [3]: 36.1%
CC(C)CCOc1ccc(-c2ncc(C(=O)O)c(=O)[nH]2)cc1C#N | 25 | –
N#Cc1cc(-c2ncc(C(=O)O)c(=O)[nH]2)ccc1OCc1ccc(Br)cc1 | 29.8 | –

More lines, main results first:

IC50 [1] [nM] | Structure (SMILES) | further results
91.6 | CC(C)Oc1ccc(-c2ncc(C(=O)O)c(=O)[nH]2)cc1C#N | –
159 | Cc1ccc(COc2ccc(-c3nc(C)c(C(=O)O)c(=O)[nH]3)cc2C#N)cc1 | –
185 | Cc1nc(-c2ccc(OCc3ccc(Br)cc3)c(C#N)c2)[nH]c(=O)c1C(=O)O | –
60.9 | CC(C)COc1ccc(-c2ncc(C(=O)O)c(=O)[nH]2)cc1C#N | –
18.1 | C=C(C)COc1ccc(-c2ncc(C(=O)O)c(=N)[nH]2)cc1C#N | Ratio IC50 [2]: 419
81.1 | C=CCOc1ccc(-c2ncc(C(=O)O)c(=O)[nH]2)cc1C#N | –
540 | Cc1nc(-c2ccc(OCCC(C)C)c(C#N)c2)[nH]c(=O)c1C(=O)O | –
568 | C=C(C)COc1ccc(-c2nc(C)c(C(=O)O)c(=O)[nH]2)cc1C#N | –
33.6 | C=C(C)COc1ccc(-c2ncc(C(=O)O)c(=O)[nH]2)cc1C#N | –
38.8 | CC(C)=CCOc1ccc(-c2ncc(C(=O)O)c(=O)[nH]2)cc1C#N | –
